In brackets after ≈: the same amount, converted by molar mass.
Columns and labels:
[1] = test system: ovarian carcinoma cell line, OVCAR3; experiment: Cancer cell growth inhibition by drug film, powder or DMSO solution; assay type: cell-based; details: for OVCAR3 cancer cells viability: after 48 hours, nominal 5 μM
Method: The printed films of BAY 11-7082 are tested by applying OVCAR3 cells solution directly onto the film, as compared to the BAY 11-7082 drug in powder form dissolved in DMSO.
See FIG. 11 showing drug application in a film form.

Solubility at pH 7.4 = assay type: physicochemical
physchem = details: 20 °C
Method: First, solubilities of the different compounds in corresponding solvents are measured at temperature 20±1° C.

[2] = Intrinsic dissolution rate (IDR) of films compared with compressed powder pellets; assay type: physicochemical; details: comparable to compressed pellets, about 10 ml, 20±1° C., solvent per compound as
Method: (§1) For dissolution rate experiments a USP 2 stirring apparatus with stirring speed of 100 rpm is used. Concentration is monitored using UV-VIS spectrometer equipped with dipping probe. As an example glass slides substrates with deposited 9 mm diameter drug films are used. Films weights are in the range of 5-80 μg. First, intrinsic dissolution rate (IDR) of films is studied and compared it to dissolution of compressed powder in form of 1.57 mm diameter pellets. IDR is defined as Equation (4): […]
In this case (dm/dt)max is maximum slope in a dissolution curve evaluated at the start of dissolution process (m—dissolved solute mass). Glass substrates with deposited films are attached to a stirring rod having same diameter as compressed pellets rod (20 mm), assuring that hydrodynamic boundary layer thickness is same for compressed powder and deposited film. Solution volume remains constant in all experiments, about 10 ml, and temperature is 20±1° C.

[3] = Surface area of printed film and of powder; assay type: physicochemical
[4] = Initial dissolution rate of printed film versus loose powder (USP 2 stirring apparatus, UV-VIS); assay type: physicochemical
From the text: When comparing dissolution from powder form and film form for the same material and same crystal structure, D, V, Cs are constant and initial dissolution rate will be proportional to A/δ. δ and A are constant for dissolution from film since area of the film is not changing during dissolution. In a powder, δ and A are changing since particles size and shape is changing. […] Therefore only the initial rate can be compared between powder and a film.
In order to compare film form versus original powder dissolution behavior, loose powders with same weight as films are introduced into 10 ml solution without any prior treatment and stirred using stirring rod with same shape and diameter as one that is used for films. All experiments are performed at temperature […].
as §1

[5] = test system: breast carcinoma cell line, MCF7; experiment: Cancer cell growth inhibition by drug film, powder or DMSO solution; assay type: cell-based; details: after 48 hours, nominal 5 μM
[6] = powder form dissolved in growth medium

SMILES: Cc1ccc(S(=O)(=O)/C=C/C#N)cc1 [BAY 11-7082, (E)-3-(4-Methylphenylsulfonyl)-2-propenenitrile]
- efficacy / viability with film form drug compared with drug dissolved in DMSO ([1]; OVCAR3 cells applied directly onto the film): No significant difference in efficacy
- solubility (Solubility at pH 7.4): 29.25 ± 0.05 µg/mL (≈ 141 µM)

SMILES: O=C1OC2(c3ccc(O)cc3Oc3cc(O)ccc32)c2ccccc21 [fluorescein]
- solubility (physchem; water): 10 ± 0.5 µg/mL (≈ 30.1 µM)

SMILES: CC(C)Cc1ccc(C(C)C(=O)O)cc1 (stereo not drawn) [ibuprofen]
- intrinsic dissolution rate (IDR) [2]: 1×10^−3±3×10^−4 μg sec^−1 mm^−2
- film surface area relative to powder surface area [3]: about 5 times higher
- enhancement of initial dissolution rate in film versus loose powder ([4]; aqueous HCl buffer pH 1.2, FIG. 10(b), 19±1° C.): about 30 times
- initial dissolution rate, printed film relative to powder ([4]; ibuprofen in buffer HCl 1.3): about 10 times higher
- initial dissolution rate ([4]; ibuprofen in buffer HCl 1.3, 30 μg of powder): 0.0004 µg/mL/s
- initial dissolution rate ([4]; ibuprofen in buffer HCl 1.3, printed film): 0.04 µg/mL/s
- solubility (physchem; pH 1.2, simulated gastric fluid): 22.5 ± 0.5 µg/mL (≈ 109 µM)

SMILES: CC/C(=C(\c1ccccc1)c1ccc(OCCN(C)C)cc1)c1ccccc1 [tamoxifen]
- intrinsic dissolution rate (IDR) [2]: 6×10^−4±1×10^−4 μg sec^−1 mm^−2
- MCF7 cancer cells viability ([5]; film form): 58%
- MCF7 cancer cells viability [5, 6]: 79%
- OVCAR3 cancer cells viability ([1]; film form): 44%
- OVCAR3 cancer cells viability [1, 6]: 68%

Source: patent publication US20230044649A1, “METHODS TO ENHANCE BIOAVAVAILABILITY OF ORGANIC SMALL MOLECULES AND DEPOSITED FILMS MADE THEREFROM” (THE REGENTS OF THE UNIVERSITY OF MICHIGAN, priority 2015, published 2023)
